Legend:
[1] = test system: BaF3; assay: Antiproliferative activity against mouse BaF3 cells harbouring CCDC6-RET V804M mutant assessed as inhibition of cell proliferation incubated for 72 hrs by CCK-8 assay; type: functional, cell-based; settings: BaF3, 72 h
[2] = test system: BaF3; assay: Antiproliferative activity against mouse BaF3 cells harbouring CCDC6-RET G810C mutant assessed as inhibition of cell proliferation incubated for 72 hrs by CCK-8 assay; type: functional, cell-based; settings: BaF3, 72 h
[3] = test system: Proto-oncogene tyrosine-protein kinase receptor Ret (Homo sapiens), P07949 [V804M]; assay: Inhibition of RET (unknown origin) V804M mutant at 1 uM relative to control
[4] = target: Proto-oncogene tyrosine-protein kinase receptor Ret (Homo sapiens, UniProt P07949, G810C); assay: Inhibition of RET (unknown origin) G810C mutant
[5] = target: Proto-oncogene tyrosine-protein kinase receptor Ret (Homo sapiens, UniProt P07949, G810R); assay: Inhibition of RET (unknown origin) G810R mutant
[6] = Induction of apoptosis in mouse BaF3 cells harboring CCDC6-RET assessed as viable cells at 10 nM incubated for 48 hrs by Annexin V-PE staining based flow cytometry analysis (Rvb =91.16%); type: functional; settings: read-out: Activity
[7] = Induction of apoptosis in mouse BaF3 cells harboring CCDC6-RET assessed as necrotic cells at 10 nM incubated for 48 hrs by Annexin V-PE staining based flow cytometry analysis (Rvb =0.19%); type: functional
[8] = Induction of apoptosis in mouse BaF3 cells harboring CCDC6-RET assessed as late apoptotic cells at 30 nM incubated for 48 hrs by Annexin V-PE staining based flow cytometry analysis (Rvb =2.44%); type: functional
[9] = Induction of apoptosis in mouse BaF3 cells harboring CCDC6-RET assessed as viable cells at 100 nM incubated for 48 hrs by Annexin V-PE staining based flow cytometry analysis (Rvb =91.16%); type: functional; settings: read-out: Activity
[10] = Induction of apoptosis in mouse BaF3 cells harboring CCDC6-RET assessed as early apoptotic cells at 100 nM incubated for 48 hrs by Annexin V-PE staining based flow cytometry analysis (Rvb =6.21%); type: functional
[11] = Induction of apoptosis in mouse BaF3 cells harboring CCDC6-RET assessed as late apoptotic cells at 100 nM incubated for 48 hrs by Annexin V-PE staining based flow cytometry analysis (Rvb =2.44%); type: functional
[12] = Induction of apoptosis in mouse BaF3 cells harboring CCDC6-RET G810C mutant assessed as viable cells at 10 nM incubated for 48 hrs by Annexin V-PE staining based flow cytometry analysis (Rvb =86.47%); type: functional; settings: read-out: Activity
[13] = Induction of apoptosis in mouse BaF3 cells harboring CCDC6-RET G810C mutant assessed as necrotic cells at 10 nM incubated for 48 hrs by Annexin V-PE staining based flow cytometry analysis (Rvb =0.48%); type: functional
[14] = Induction of apoptosis in mouse BaF3 cells harboring CCDC6-RET G810C mutant assessed as early apoptotic cells at 100 nM incubated for 48 hrs by Annexin V-PE staining based flow cytometry analysis (Rvb =8.74%); type: functional
[15] = Induction of apoptosis in mouse BaF3 cells harboring CCDC6-RET G810C mutant assessed as necrotic cells at 100 nM incubated for 48 hrs by Annexin V-PE staining based flow cytometry analysis (Rvb =0.48%); type: functional
[16] = Induction of apoptosis in mouse BaF3 cells harboring CCDC6-RET G810R mutant assessed as early apoptotic cells at 10 nM incubated for 48 hrs by Annexin V-PE staining based flow cytometry analysis (Rvb =10 %); type: functional
[17] = Induction of apoptosis in mouse BaF3 cells harboring CCDC6-RET G810R mutant assessed as necrotic cells at 30 nM incubated for 48 hrs by Annexin V-PE staining based flow cytometry analysis (Rvb =0.30%); type: functional
[18] = Induction of apoptosis in mouse BaF3 cells harboring CCDC6-RET G810R mutant assessed as late apoptotic cells at 100 nM incubated for 48 hrs by Annexin V-PE staining based flow cytometry analysis (Rvb =3.21%); type: functional
[19] = Induction of cell cycle arrest in mouse BaF3 cells harboring CCDC6-RET assessed as accumulation of cells at G0/G1 phase at 30 nM incubated for 24 hrs by propidium iodide staining based analysis (reference value: 52.51%); type: functional
[20] = Induction of cell cycle arrest in mouse BaF3 cells harboring CCDC6-RET assessed as accumulation of cells at S phase at 30 nM incubated for 24 hrs by propidium iodide staining based analysis (reference value: 13.27%); type: functional
[21] = Induction of cell cycle arrest in mouse BaF3 cells harboring CCDC6-RET assessed as accumulation of cells at G0/G1 phase at 300 nM incubated for 24 hrs by propidium iodide staining based analysis (reference value: 52.51%); type: functional
[22] = Induction of cell cycle arrest in mouse BaF3 cells harboring CCDC6-RET G810C mutant assessed as accumulation of cells at G0/G1 phase at 300 nM incubated for 24 hrs by propidium iodide staining based analysis (reference value: 52.11%); type: functional
[23] = Induction of cell cycle arrest in mouse BaF3 cells harboring CCDC6-RET G810C mutant assessed as accumulation of cells at S phase at 300 nM incubated for 24 hrs by propidium iodide staining based analysis (reference value: 12.47%); type: functional
[24] = Induction of cell cycle arrest in mouse BaF3 cells harboring CCDC6-RET G810C mutant assessed as accumulation of cells at G2/M phase at 300 nM incubated for 24 hrs by propidium iodide staining based analysis (reference value: 34.75%); type: functional
[25] = Induction of cell cycle arrest in mouse BaF3 cells harboring CCDC6-RET G810R mutant assessed as accumulation of cells at G0/G1 phase at 10 nM incubated for 24 hrs by propidium iodide staining based analysis (reference value: 52.63%); type: functional
[26] = Induction of cell cycle arrest in mouse BaF3 cells harboring CCDC6-RET G810R mutant assessed as accumulation of cells at G2/M phase at 30 nM incubated for 24 hrs by propidium iodide staining based analysis (reference value: 33.61%); type: functional
[27] = Induction of cell cycle arrest in mouse BaF3 cells harboring CCDC6-RET G810R mutant assessed as accumulation of cells at S phase at 100 nM incubated for 24 hrs by propidium iodide staining based analysis (reference value: 13.66%); type: functional
[28] = Induction of cell cycle arrest in mouse BaF3 cells harboring CCDC6-RET G810R mutant assessed as accumulation of cells at S phase at 300 nM incubated for 24 hrs by propidium iodide staining based analysis (reference value: 13.66%); type: functional
[29] = test system: BaF3; assay: Inhibition of RET phosphorylation in mouse BaF3 cells harboring CCDC6-RET G810C mutant incubated for 12 hrs by Western blotting analysis; type: cell-based; settings: dose <= 300.0 nM
[30] = Toxicity in SCID mouse implanted with mouse BaF3 cells assessed as change in body weight at 25 mg/kg, ip administered once daily for 10 days; type: organism-based; settings: in vivo, 240 h, time 10 day

Chain of Proto-oncogene tyrosine-protein kinase receptor Ret (Homo sapiens), P07949 [V804M] (P07949 whole entry V804M): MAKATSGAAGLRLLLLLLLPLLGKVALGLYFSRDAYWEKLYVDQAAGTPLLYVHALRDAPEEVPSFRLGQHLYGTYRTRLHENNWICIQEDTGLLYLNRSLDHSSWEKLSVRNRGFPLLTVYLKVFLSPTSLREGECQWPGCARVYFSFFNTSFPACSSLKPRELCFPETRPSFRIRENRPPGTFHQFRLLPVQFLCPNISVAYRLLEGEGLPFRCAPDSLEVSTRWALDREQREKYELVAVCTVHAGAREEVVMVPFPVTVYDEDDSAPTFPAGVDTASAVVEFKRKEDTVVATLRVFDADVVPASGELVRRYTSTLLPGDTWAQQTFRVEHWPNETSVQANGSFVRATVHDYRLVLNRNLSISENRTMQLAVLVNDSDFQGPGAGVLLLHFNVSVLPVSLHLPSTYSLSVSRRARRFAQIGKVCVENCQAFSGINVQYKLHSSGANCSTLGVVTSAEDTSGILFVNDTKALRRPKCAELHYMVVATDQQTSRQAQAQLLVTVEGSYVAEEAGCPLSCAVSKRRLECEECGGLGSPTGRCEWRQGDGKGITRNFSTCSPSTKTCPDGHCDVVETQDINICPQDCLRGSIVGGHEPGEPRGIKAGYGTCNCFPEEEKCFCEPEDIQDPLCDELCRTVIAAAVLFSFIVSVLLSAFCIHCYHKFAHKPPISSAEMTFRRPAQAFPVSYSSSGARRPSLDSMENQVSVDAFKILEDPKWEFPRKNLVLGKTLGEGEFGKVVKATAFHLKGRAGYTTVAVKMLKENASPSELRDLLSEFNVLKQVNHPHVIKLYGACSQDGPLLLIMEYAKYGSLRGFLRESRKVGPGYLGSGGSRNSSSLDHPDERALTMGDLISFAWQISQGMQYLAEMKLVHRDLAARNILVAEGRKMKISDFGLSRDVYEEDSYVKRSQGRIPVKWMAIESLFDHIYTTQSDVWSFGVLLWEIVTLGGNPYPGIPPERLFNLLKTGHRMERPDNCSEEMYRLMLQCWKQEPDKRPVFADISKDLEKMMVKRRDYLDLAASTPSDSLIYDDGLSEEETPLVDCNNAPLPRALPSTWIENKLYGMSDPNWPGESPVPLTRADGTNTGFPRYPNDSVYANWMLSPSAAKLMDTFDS
Chain of Proto-oncogene tyrosine-protein kinase receptor Ret (Homo sapiens, UniProt P07949, G810R) (P07949 29-1114 G810R limits assumed): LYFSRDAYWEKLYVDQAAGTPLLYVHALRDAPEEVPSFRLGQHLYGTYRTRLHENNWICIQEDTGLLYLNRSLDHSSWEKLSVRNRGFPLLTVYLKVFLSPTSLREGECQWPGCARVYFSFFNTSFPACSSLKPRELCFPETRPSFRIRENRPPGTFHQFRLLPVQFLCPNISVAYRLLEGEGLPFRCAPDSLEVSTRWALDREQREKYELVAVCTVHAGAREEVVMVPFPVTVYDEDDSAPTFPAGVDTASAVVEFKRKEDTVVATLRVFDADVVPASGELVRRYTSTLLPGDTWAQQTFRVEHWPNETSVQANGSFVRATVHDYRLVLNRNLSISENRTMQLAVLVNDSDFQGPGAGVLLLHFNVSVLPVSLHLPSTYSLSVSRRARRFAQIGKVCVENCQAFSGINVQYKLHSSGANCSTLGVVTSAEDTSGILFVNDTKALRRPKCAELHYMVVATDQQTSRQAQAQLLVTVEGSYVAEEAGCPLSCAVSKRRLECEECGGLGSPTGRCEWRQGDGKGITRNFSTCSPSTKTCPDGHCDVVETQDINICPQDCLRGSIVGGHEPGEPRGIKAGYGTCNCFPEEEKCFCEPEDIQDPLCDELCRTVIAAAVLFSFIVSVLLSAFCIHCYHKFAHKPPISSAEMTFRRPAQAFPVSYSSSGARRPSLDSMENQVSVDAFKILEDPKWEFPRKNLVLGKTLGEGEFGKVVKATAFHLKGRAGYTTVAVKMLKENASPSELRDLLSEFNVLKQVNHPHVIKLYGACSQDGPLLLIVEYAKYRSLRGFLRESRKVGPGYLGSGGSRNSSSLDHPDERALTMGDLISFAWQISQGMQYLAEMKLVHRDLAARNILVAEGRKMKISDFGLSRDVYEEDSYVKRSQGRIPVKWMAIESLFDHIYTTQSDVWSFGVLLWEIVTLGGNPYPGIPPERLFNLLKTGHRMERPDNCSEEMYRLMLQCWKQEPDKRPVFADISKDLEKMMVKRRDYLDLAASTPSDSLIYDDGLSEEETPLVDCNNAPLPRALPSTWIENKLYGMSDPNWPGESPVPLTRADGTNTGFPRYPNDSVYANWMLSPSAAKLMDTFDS
Chain of Proto-oncogene tyrosine-protein kinase receptor Ret (Homo sapiens, UniProt P07949, G810C) (P07949 29-1114 G810C limits assumed): as the sequence (P07949 29-1114 G810R limits assumed) above, with R782C counted along it

IC50 [1]: 563 nM
IC50 [2]: 25.7 nM
inhibition [3]: 98.6%
IC50 [4]: 7.1 nM
IC50 [5]: 32.4 nM
Compound: COc1cncc(-c2cn[nH]c2/C=C/c2ccc(NC(=O)Nc3cc(C(C)(C)C(F)(F)F)on3)c(Cl)c2)c1
viability at 0.01 µM [6]: 86.4%
Activity [7]: 0.14%
Activity [8]: 0.8%
viability at 0.1 µM [9]: 24%
Activity [10]: 74.7%
Activity [11]: 1.21%
viability at 0.01 µM [12]: 87.1%
Activity [13]: 0.49%
Activity [14]: 37.84%
Activity [15]: 0.24%
Activity [16]: 10.05%
Activity [17]: 0.14%
Activity [18]: 10.19%
Activity [19]: 56.2%
Activity [20]: 13.33%
Activity [21]: 84.1%
Activity [22]: 72.47%
Activity [23]: 4.14%
Activity [24]: 23.18%
Activity [25]: 54.03%
Activity [26]: 32.17%
Activity [27]: 12.78%
Activity [28]: 4.8%
inhibition [29]: Dose-dependent-effect
Activity [30]: Non-toxic

Reference: ChEMBL document CHEMBL6103575, “Design, synthesis and evaluation of (E)-1-(4-(2-(1H-pyrazol-5-yl)vinyl)phenyl) derivatives as next generation selective RET inhibitors overcoming RET solvent front mutations (G810C/R)” (Eur J Med Chem, 2025)
